Laboratory results taken from patent US12371454B2, “Cyclic peptide compound having Kras inhibitory action” (priority 2019, dated 2025).
Starred links: 1 amine or outer side, 2 acyl side, 3 side chain; linkers in the order of their positions; H or OH if unused. Positions of bridges follow the written chain, without caps; N, C: chain ends. Non-standard residues stand in square brackets, D forms with d. Residues, ends and D or L forms follow the SMILES beside them. *: point of attachment. hPhe(3-Cl-4-CF3) = N[C@@H](CCc1ccc(C(F)(F)F)c(Cl)c1)C(=O)O; NMeDab(N,N-(CH2CF2CH2)) = CN[C@@H](CCN1CC(F)(F)C1)C(=O)O; hPhe(4-CF3) = N[C@@H](CCc1ccc(C(F)(F)F)cc1)C(=O)O; Phe(4-CF3) = N[C@@H](Cc1ccc(C(F)(F)F)cc1)C(=O)O; X17 = Cc1cncc(C[C@@H](C(=O)[*:2])N(C)[*:1])c1; NMePhe(4-Cl) = CN[C@@H](Cc1ccc(Cl)cc1)C(=O)O; NMePhe(2-CN) = CN[C@@H](Cc1ccccc1C#N)C(=O)O; NMePhe(4-Me) = CN[C@@H](Cc1ccc(C)cc1)C(=O)O; NMedβ3hAla = C[C@H](CC(=O)[*:2])N(C)[*:1]; Phe(4-Cl) = N[C@@H](Cc1ccc(Cl)cc1)C(=O)O; NMeGly(cPent) = CN[C@H](C(=O)O)C1CCCC1; Phe(3-I) = N[C@@H](Cc1cccc(I)c1)C(=O)O; Pro(4,4-F2) = O=C(O)[C@@H]1CC(F)(F)CN1; X26 = O=C([C@@H]1CCC[C@H]1N[*:1])[*:2]; Phe(2-Me) = Cc1ccccc1C[C@H](N)C(=O)O; Gly(cPent) = N[C@H](C(=O)O)C1CCCC1; NMeCha = CN[C@@H](CC1CCCCC1)C(=O)O; Gly(N-(CH2)2OEt) = CCOCCNCC(=O)O; NMeChg = CN[C@H](C(=O)O)C1CCCCC1; NMeF = CN[C@@H](Cc1ccccc1)C(=O)O; NMeβAla = CN(CCC(=O)[*:2])[*:1]; NMeD = CN[C@@H](CC(=O)O)C(=O)O; NMeL = CN[C@@H](CC(C)C)C(=O)O; NMeV = CN[C@H](C(=O)O)C(C)C; d(β3hA) = C[C@@H](N)CC(=O)O; Pip = O=C(O)[C@@H]1CCCCN1; dPip = O=C(O)[C@H]1CCCCN1; NMeA = CN[C@@H](C)C(=O)O; NMeAib = CNC(C)(C)C(=O)O; Nle = CCCC[C@H](N)C(=O)O; Piperidide = C1CCN(*)CC1; Pyrrolidide = C1CCN(*)C1; Ac5c = NC1(C(=O)O)CCCC1; Aze = O=C(O)[C@@H]1CCN1; Ac4c = NC1(C(=O)O)CCC1; Sar = CNCC(=O)O

The molecules below were run against T1, Kras and SOS1 (biotin-tagged human Kras loaded with GDP, His-tagged human SOS1) (Homo sapiens, UniProt P01116, G12D) (assay: Protein-protein interaction inhibition between Kras and SOS1 (KrasGl2D-SOS PPI) using AlphaScreen). Conditions: AlphaScreen; biotin-tagged human Kras loaded with GDP, His-tagged human SOS1; read-out: KRAS G12D-SOS PPI IC50.
T1 construct: made in house; host or cells: E. coli (stated for Kras only)
T1 sequence (P01116 1-188 isoform P01116-2 G12D): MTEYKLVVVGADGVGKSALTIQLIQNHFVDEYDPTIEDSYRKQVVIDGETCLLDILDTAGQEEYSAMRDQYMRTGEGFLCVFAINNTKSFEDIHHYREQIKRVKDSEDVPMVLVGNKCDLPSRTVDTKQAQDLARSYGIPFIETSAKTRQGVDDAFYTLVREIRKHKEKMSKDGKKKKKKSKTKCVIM
Type: binding
Outline: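 AlphaScreen format: Ni donor beads capture His-SOS1, streptavidin acceptor beads capture biotinylated Kras (E. coli-expressed, GDP-loaded post-purification). Excite 680 nm, read 520-620 nm.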

Row | SMILES | IC50 [nM]
1 | CCOCCN1CC(=O)N(C)CC(=O)N(C)[C@@H](CC2CCCCC2)C(=O)N(C)CC(=O)N[C@@H](CCc2ccc(C(F)(F)F)c(Cl)c2)C(=O)N2CCC[C@H]2C(=O)NC2(CCCC2)C(=O)N(C)[C@@H](C(C)C)C(=O)N[C@H](C)CC(=O)N(C)[C@@H](CC(C)C)C(=O)N[C@@H]([C@@H](C)CC)C1=O [Compound 329] (cyclo([Ac5c][NMeV][d(β3hA)][NMeL]I[Gly(N-(CH2)2OEt)][Sar][NMeCha][Sar][hPhe(3-Cl-4-CF3)]P)) | 40
2 | CC[C@H](C)[C@@H]1NC(=O)[C@H](CC(C)C)N(C)C(=O)C[C@@H](C(=O)N2CCCCC2)N(C)C(=O)[C@H](CC(C)C)NC(=O)C(C)(C)N(C)C(=O)[C@H](Cc2ccc(Cl)cc2)NC(=O)[C@H](Cc2cccc(I)c2)NC(=O)CN(C)C(=O)[C@H](CC2CCCCC2)N(C)C(=O)CN(C)C(=O)CN(C)C1=O [Compound 330] ([NMeL]I[Sar][Sar][NMeCha][Sar][Phe(3-I)][Phe(4-Cl)][NMeAib]L[NMeD]-Piperidide; lactam N-11) | 80
3 | CC[C@H](C)[C@@H]1NC(=O)[C@H](C)N(C)C(=O)C[C@@H](C(=O)N2CCCCC2)N(C)C(=O)[C@H](C(C)C)N(C)C(=O)[C@H](CC(C)C)NC(=O)[C@H](CCN2CC(F)(F)C2)N(C)C(=O)[C@H](CCc2ccc(C(F)(F)F)c(Cl)c2)NC(=O)CN(C)C(=O)[C@H](CC2CCCCC2)N(C)C(=O)CN(C)C(=O)CN(C)C1=O [Compound 331] ([NMeA]I[Sar][Sar][NMeCha][Sar][hPhe(3-Cl-4-CF3)][NMeDab(N,N-(CH2CF2CH2))]L[NMeV][NMeD]-Piperidide; lactam N-11) | 30
4 | CC(C)C[C@H]1C(=O)N[C@@H](C2CCCC2)C(=O)N(C)CC(=O)N(C)CC(=O)N(C)[C@@H](CC2CCCCC2)C(=O)N(C)CC(=O)N[C@@H](CCc2ccc(C(F)(F)F)c(Cl)c2)C(=O)N2CCC[C@H]2C(=O)NC2(CCCC2)C(=O)N(C)[C@@H](C(C)C)C(=O)N[C@H](C)CC(=O)N1C [Compound 333] (cyclo([Ac5c][NMeV][d(β3hA)][NMeL][Gly(cPent)][Sar][Sar][NMeCha][Sar][hPhe(3-Cl-4-CF3)]P)) | 110
5 | CC[C@H](C)[C@@H]1NC(=O)[C@H](CC(C)C)N(C)C(=O)C[C@@H](C(=O)N2CCCCC2)N(C)C(=O)[C@H](CC(C)C)NC(=O)C(C)(C)N(C)C(=O)[C@H](Cc2ccccc2C)NC(=O)[C@H](Cc2cccc(I)c2)NC(=O)CN(C)C(=O)[C@H](Cc2ccc(C)cc2)N(C)C(=O)[C@@H]2CCN2C(=O)CN(C)C1=O [Compound 335] ([NMeL]I[Sar][Aze][NMePhe(4-Me)][Sar][Phe(3-I)][Phe(2-Me)][NMeAib]L[NMeD]-Piperidide; lactam N-11) | 67
6 | CC[C@H](C)[C@@H]1NC(=O)[C@H](CC(C)C)N(C)C(=O)C[C@@H](C(=O)N2CCCCC2)N(C)C(=O)[C@H](CC(C)C)NC(=O)C(C)(C)N(C)C(=O)[C@H](Cc2ccc(C(F)(F)F)cc2)NC(=O)[C@H](Cc2cccc(I)c2)NC(=O)CN(C)C(=O)[C@H](CC2CCCCC2)N(C)C(=O)CN(C)C(=O)CN(C)C1=O [Compound 336] ([NMeL]I[Sar][Sar][NMeCha][Sar][Phe(3-I)][Phe(4-CF3)][NMeAib]L[NMeD]-Piperidide; lactam N-11) | 93
7 | CC[C@H](C)[C@@H]1NC(=O)[C@H](CC(C)C)N(C)C(=O)C[C@@H](C(=O)N2CCCCC2)N(C)C(=O)[C@H](C2CCCCC2)N(C)C(=O)C2(CCCC2)NC(=O)[C@H](Cc2cncc(C)c2)N(C)C(=O)[C@H](CCc2ccc(C(F)(F)F)c(Cl)c2)NC(=O)CN(C)C(=O)[C@H](CC2CCCCC2)N(C)C(=O)[C@@H]2CCN2C(=O)[C@H](C)N(C)C1=O [Compound 338] ([NMeL]I[NMeA][Aze][NMeCha][Sar][hPhe(3-Cl-4-CF3)][X17][Ac5c][NMeChg][NMeD]-Piperidide; lactam N-11) | 220
8 | CC[C@H](C)[C@@H]1NC(=O)[C@H](CC(C)C)N(C)C(=O)[C@@H]2CCC[C@H]2NC(=O)[C@H](C(C)C)N(C)C(=O)C2(CCCC2)NC(=O)[C@@H]2CCCN2C(=O)[C@H](CCc2ccc(C(F)(F)F)c(Cl)c2)NC(=O)CN(C)C(=O)[C@H](CC2CCCCC2)N(C)C(=O)CN(C)C(=O)CN(C)C1=O [Compound 347] (cyclo([Ac5c][NMeV][X26][NMeL]I[Sar][Sar][NMeCha][Sar][hPhe(3-Cl-4-CF3)]P)) | 27
9 | CC[C@H](C)[C@@H]1NC(=O)[C@H](C)N(C)C(=O)C[C@@H](C(=O)N2CCCCC2)N(C)C(=O)[C@H](C(C)C)N(C)C(=O)C2(CCCC2)NC(=O)[C@@H]2CCCN2C(=O)[C@H](CCc2ccc(C(F)(F)F)c(Cl)c2)NC(=O)[C@H]2CCCCN2C(=O)[C@H](CC2CCCCC2)N(C)C(=O)[C@@H]2CCN2C(=O)[C@H](C)N(C)C1=O [Compound 349] ([NMeA]I[NMeA][Aze][NMeCha][dPip][hPhe(3-Cl-4-CF3)]P[Ac5c][NMeV][NMeD]-Piperidide; lactam N-11) | 190
10 | CCCC[C@@H]1NC(=O)[C@H](CCc2ccc(C(F)(F)F)c(Cl)c2)NC(=O)CN(C)C(=O)[C@H](Cc2ccc(Cl)cc2)N(C)C(=O)[C@@H]2CCN2C(=O)CN(C)C(=O)[C@H]([C@@H](C)CC)NC(=O)[C@@H]2CCCCN2C(=O)C[C@@H](C(=O)N2CCCCC2)N(C)C(=O)[C@H](CC(C)C)NC(=O)C(C)(C)N(C)C1=O [Compound 352] ([Pip]I[Sar][Aze][NMePhe(4-Cl)][Sar][hPhe(3-Cl-4-CF3)][Nle][NMeAib]L[NMeD]-Piperidide; lactam N-11) | 5.5
11 | CC[C@H](C)[C@@H]1NC(=O)[C@H](CC(C)C)N(C)C(=O)C[C@@H](C)N(C)C(=O)[C@H](C(C)C)N(C)C(=O)C2(CCCC2)NC(=O)[C@@H]2CCCN2C(=O)[C@H](CCc2ccc(C(F)(F)F)c(Cl)c2)NC(=O)CN(C)C(=O)[C@H](Cc2ccccc2C#N)N(C)C(=O)CN(C)C(=O)CN(C)C1=O [Compound 357] (cyclo([Ac5c][NMeV][NMedβ3hAla][NMeL]I[Sar][Sar][NMePhe(2-CN)][Sar][hPhe(3-Cl-4-CF3)]P)) | 22
12 | CC[C@H](C)[C@@H]1NC(=O)[C@H](CC(C)C)N(C)C(=O)C[C@@H](C)N(C)C(=O)[C@H](C2CCCC2)N(C)C(=O)C2(CCC2)NC(=O)[C@@H]2CC(F)(F)CN2C(=O)[C@H](CCc2ccc(C(F)(F)F)c(Cl)c2)NC(=O)CN(C)C(=O)[C@H](Cc2ccc(C)cc2)N(C)C(=O)CN(C)C(=O)CN(C)C1=O [Compound 359] (cyclo([Ac4c][NMeGly(cPent)][NMedβ3hAla][NMeL]I[Sar][Sar][NMePhe(4-Me)][Sar][hPhe(3-Cl-4-CF3)][Pro(4,4-F2)])) | 3.2
13 | CC[C@H](C)[C@@H]1NC(=O)[C@H](CC(C)C)N(C)C(=O)C[C@@H](C(=O)N(C)C)N(C)C(=O)[C@H](C2CCCC2)N(C)C(=O)C2(CCCC2)NC(=O)[C@@H]2CCCN2C(=O)[C@H](CCc2ccc(C(F)(F)F)c(Cl)c2)NC(=O)CN(C)C(=O)[C@H](Cc2ccc(C)cc2)N(C)C(=O)[C@@H]2CCN2C(=O)[C@H](C)NC1=O [Compound 363, (5S,8S,11S,15S,18S,23aS,29S,35S,37aS)-8-((S)-sec-butyl)-29-(3-chloro-4-(trifluoromethyl)phenethyl)-18-cyclopentyl-11-isobutyl-N,N,5,12,16,19,33,36-octamethyl-35-(4-methylbenzyl)-4,7,10,13,17,20,23,28,31,34,37-undecaoxotetratriacontahydro-2H,4H-spiro[azeto[2,1-u]pyrrolo[2,1-i][1,4,7,10,13,16,19,22,25,28,31]undecaazacyclotetratriacontine-21,1′-cyclopentane]-15-carboxamide] ([NMeL]IA[Aze][NMePhe(4-Me)][Sar][hPhe(3-Cl-4-CF3)]P[Ac5c][NMeGly(cPent)][NMeD]-NMe2; lactam N-11) | 0.65
14 | CC[C@H](C)[C@@H]1NC(=O)[C@H](CC(C)C)NC(=O)C[C@@H](C(=O)N2CCCCC2)N(C)C(=O)[C@H](C(C)C)N(C)C(=O)C2(CCCC2)NC(=O)[C@@H]2CCCN2C(=O)[C@H](CCc2ccc(C(F)(F)F)c(Cl)c2)NC(=O)CN(C)C(=O)[C@H](CC2CCCCC2)N(C)C(=O)[C@@H]2CCN2C(=O)[C@H](C)N(C)C1=O [Compound 368] (LI[NMeA][Aze][NMeCha][Sar][hPhe(3-Cl-4-CF3)]P[Ac5c][NMeV][NMeD]-Piperidide; lactam N-11) | 2.7
15 | CC[C@H](C)[C@@H]1NC(=O)CCN(C)C(=O)CN(C)C(=O)[C@H](C2CCCC2)N(C)C(=O)C2(CCCC2)NC(=O)[C@@H]2CCCN2C(=O)[C@H](CCc2ccc(C(F)(F)F)c(Cl)c2)NC(=O)CN(C)C(=O)[C@H](CC2CCCCC2)N(C)C(=O)CN(C)C(=O)CN(C)C1=O [Compound 369] (cyclo([Ac5c][NMeGly(cPent)][Sar][NMeβAla]I[Sar][Sar][NMeCha][Sar][hPhe(3-Cl-4-CF3)]P)) | 350
16 | CC[C@H](C)[C@@H]1NC(=O)[C@H](C)N(C)C(=O)C[C@@H](C(=O)N2CCCC2)NC(=O)[C@H](CC(C)C)NC(=O)[C@H](Cc2ccccc2)N(C)C(=O)[C@H](CC(C)C)NC(=O)[C@H](CCc2ccc(C(F)(F)F)cc2)NC(=O)CN(C)C(=O)[C@H](Cc2ccc(Cl)cc2)N(C)C(=O)CN(C)C(=O)CN(C)C1=O [Compound 372] ([NMeA]I[Sar][Sar][NMePhe(4-Cl)][Sar][hPhe(4-CF3)]L[NMeF]LD-Pyrrolidide; lactam N-11) | 130
17 | CC[C@H](C)[C@@H]1NC(=O)[C@H](CC(C)C)N(C)C(=O)C[C@@H](C)N(C)C(=O)[C@H](C2CCCCC2)N(C)C(=O)C2(CCC2)NC(=O)[C@@H]2CC(F)(F)CN2C(=O)[C@H](CCc2ccc(C(F)(F)F)c(Cl)c2)NC(=O)CN(C)C(=O)[C@H](Cc2ccc(C)cc2)N(C)C(=O)CN(C)C(=O)CN(C)C1=O [Compound 375] (cyclo([Ac4c][NMeChg][NMedβ3hAla][NMeL]I[Sar][Sar][NMePhe(4-Me)][Sar][hPhe(3-Cl-4-CF3)][Pro(4,4-F2)])) | 12
